From patent US10344025B2, “GLS1 inhibitors for treating disease” (Board of Regents, The University of Texas System, priority 2014, dated 2019)

What was measured:
[1] = target: purified recombinant human GAC (GLS1) (Homo sapiens (Human), UniProt O94925); assay: GLS1 Enzymatic Activity Assay (dual-coupled enzymatic assay, resorufin/Amplex UltraRed readout); type: biochemical;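 also: glutamate from GAC coupled via glutamate oxidase and peroxidase to resorufin, read as fluorescence (ex 530, em 590 nm) kinetically or at 20 min, four-parameter logistic IC50 fit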
[2] = system: A549 cells; assay: Proliferation Assay (A549 viability, Cell Titer Fluor, 72 hours); type: cell-based; conditions: Homo sapiens, A549, 72 h
Procedure, shortened: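 Cell Titer Fluor fluorescence after 72 h compound treatment (0.5% DMSO, 37 °C, 5% CO2) of A549 cells plated 24 h earlier at 1000/well. Four-parameter logistic fitting gave IC50.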

purified recombinant human GAC (GLS1), sequence (O94925 other isoform, or with tags, fused parts or gaps): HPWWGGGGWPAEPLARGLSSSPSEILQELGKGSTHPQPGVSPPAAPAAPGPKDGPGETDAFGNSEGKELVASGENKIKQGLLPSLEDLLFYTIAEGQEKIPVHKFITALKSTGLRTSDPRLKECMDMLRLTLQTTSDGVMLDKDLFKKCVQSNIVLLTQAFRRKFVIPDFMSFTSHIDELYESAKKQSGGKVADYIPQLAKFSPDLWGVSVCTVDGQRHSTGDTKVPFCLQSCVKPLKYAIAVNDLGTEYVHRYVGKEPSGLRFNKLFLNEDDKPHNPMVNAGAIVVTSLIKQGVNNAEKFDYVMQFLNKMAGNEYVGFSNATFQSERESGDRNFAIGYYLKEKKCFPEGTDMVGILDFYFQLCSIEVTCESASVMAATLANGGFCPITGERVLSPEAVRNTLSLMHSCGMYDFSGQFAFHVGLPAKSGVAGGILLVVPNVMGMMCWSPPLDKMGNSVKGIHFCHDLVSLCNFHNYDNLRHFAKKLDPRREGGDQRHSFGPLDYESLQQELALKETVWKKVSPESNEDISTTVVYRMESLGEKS

SMILES | IC50 [1] | EC50 [2]
O=C(CN1CCC(F)(F)C1)Nc1cn(CCCCn2cc(C(=O)NCc3cc(OC(F)(F)F)ccc3F)nn2)nn1 [Example 356, 1-(4-{4-[2-(3,3-difluoropyrrolidin-1-yl)acetamido]-1H-1,2,3-triazol-1-yl}butyl)-N-{[2-fluoro-5-(trifluoromethoxy)phenyl]methyl}-1H-1,2,3-triazole-4-carboxamide] | < 100 nM | < 100 nM
O=C(NCc1cc(C(F)(F)F)ccn1)c1cn(CCCCn2cc(C(=O)NC[C@@H]3CC4CCC3O4)nn2)nn1 (stereo partly drawn) [Example 103, 1-[4-(4-{[(2S)-7-oxabicyclo[2.2.1]heptan-2-ylmethyl]carbamoyl}-1H-1,2,3-triazol-1-yl)butyl]-N-{[4-(trifluoromethyl)pyridin-2-yl]methyl}-1H-1,2,3-triazole-4-carboxamide] | 100 to 500 nM | 500 to 5000 nM
O=C(Nc1nnc(CCC(F)Cn2cc(C(=O)NCc3cc(OC(F)(F)F)ccc3F)nn2)s1)c1ccncc1 (stereo not shown) [Example 594, N-(5-(3-fluoro-4-(4-((2-fluoro-5-(trifluoromethoxy)benzyl)carbamoyl)-1H-1,2,3-triazol-1-yl)butyl)-1,3,4-thiadiazol-2-yl)isonicotinamide] | < 100 nM | 500 to 5000 nM
Cc1ccc(CC(=O)Nc2cn(CCCCn3cc(C(=O)NCc4cc(Cl)ccc4F)nn3)nn2)cn1 [Example 336, N-[(5-chloro-2-fluorophenyl)methyl]-1-(4-{4-[2-(6-methylpyridin-3-yl)acetamido]-1H-1,2,3-triazol-1-yl}butyl)-1H-1,2,3-triazole-4-carboxamide] | < 100 nM | 100 to 500 nM
O=C(Cc1cc(OC(F)(F)F)ccc1F)Nc1ccc(CCCCn2cc(C(=O)NCc3cccnc3)nn2)nn1 [Example 586, 1-(4-(6-(2-(2-fluoro-5-(trifluoromethoxy)phenyl)acetamido)pyridazin-3-yl)butyl)-N-(pyridin-3-ylmethyl)-1H-1,2,3-triazole-4-carboxamide] | < 100 nM | < 100 nM
O=C(NCc1cccc(OC(F)(F)F)c1)c1cn(CCCCn2cc(C(=O)NCc3cc(C(F)(F)F)ccn3)nn2)nn1 [Example 83, N-{[3-(trifluoromethoxy)phenyl]methyl}-1-{4-[4-({[4-(trifluoromethyl)pyridin-2-yl]methyl}carbamoyl)-1H-1,2,3-triazol-1-yl]butyl}-1H-1,2,3-triazole-4-carboxamide] | < 100 nM | < 100 nM
CNC(=O)c1cn(CCCCc2ccc(NC(=O)CC3CCOCC3)nn2)nn1 [Example 547, N-methyl-1-(4-{6-[2-(oxan-4-yl)acetamido]pyridazin-3-yl}butyl)-1H-1,2,3-triazole-4-carboxamide] | 100 to 500 nM | 500 to 5000 nM
O=C(NCc1cccc(OC(F)(F)F)c1)c1cn(CCC(F)Cn2cc(C(=O)NCc3ccc(C(F)(F)F)nc3)nn2)nn1 (stereo not shown) [Example 435, 1-{2-fluoro-4-[4-({[3-(trifluoromethoxy)phenyl]methyl}carbamoyl)-1H-1,2,3-triazol-1-yl]butyl}-N-{[6-(trifluoromethyl)pyridin-3-yl]methyl}-1H-1,2,3-triazole-4-carboxamide] | < 100 nM | < 100 nM
O=C(NCc1cccc(OC(F)(F)F)c1)c1cn(CCCCc2ccc(NC(=O)C3CC3)nn2)nn1 [Example 176, 1-[4-(6-cyclopropaneamidopyridazin-3-yl)butyl]-N-{[3-(trifluoromethoxy)phenyl]methyl}-1H-1,2,3-triazole-4-carboxamide] | < 100 nM | 100 to 500 nM
Cc1ccc(CNC(=O)c2cn(CC(F)CCc3nnc(NC(=O)Cc4cccc(OC(F)(F)F)c4)s3)nn2)cn1 (stereo not shown) [Example 559, 1-[2-fluoro-4-(5-{2-[3-(trifluoromethoxy)phenyl]acetamido}-1,3,4-thiadiazol-2-yl)butyl]-N-[(6-methylpyridin-3-yl)methyl]-1H-1,2,3-triazole-4-carboxamide] | < 100 nM | 100 to 500 nM
O=C(NCc1cncc(C(F)(F)F)c1)c1cn(CCCCn2cc(C(=O)NCc3cc(C(F)(F)F)ccn3)nn2)nn1 [Example 141, 1-{4-[4-({[4-(trifluoromethyl)pyridin-2-yl]methyl}carbamoyl)-1H-1,2,3-triazol-1-yl]butyl}-N-{[5-(trifluoromethyl)pyridin-3-yl]methyl}-1H-1,2,3-triazole-4-carboxamide] | < 100 nM | < 100 nM
O=C(NCc1cc(C(F)(F)F)ccn1)c1cn(CCCCn2cc(C(=O)NCC3CCCCO3)nn2)nn1 (stereo not shown) [Example 114] | 500 to 5000 nM | 500 to 5000 nM
CNC(=O)c1cn(CCC(F)Cn2cc(C(=O)NCc3ccc(OC(F)F)cc3)nn2)nn1 (stereo not shown) [Example 181, 1{4-[4-({[4-(difluoromethoxy)phenyl]methyl}carbamoyl)-1H-1,2,3-triazol-1-yl]-3-fluorobutyl}-N-methyl-1H-1,2,3-triazole-4-carboxamide] | 100 to 500 nM | 500 to 5000 nM
CC(C)CNC(=O)c1cn(CCCCc2ccc(NC(=O)Cc3ccccc3)nn2)nn1 [Example 24, N-(2-methylpropyl)-1-{4-[6-(2-phenylacetamido)pyridazin-3-yl]butyl}-1H-1,2,3-triazole-4-carboxamide] | < 100 nM | < 100 nM
CNC(=O)c1cn(CCC(F)Cn2cc(C(=O)NCc3cccc(CNC(=O)OC(C)(C)C)c3)nn2)nn1 (stereo not shown) [Example 166, tert-butyl N-[(3-{[(1-{2-fluoro-4-[4-(methylcarbamoyl)-1H-1,2,3-triazol-1-yl]butyl}-1H-1,2,3-triazol-4-yl)formamido]methyl}phenyl)methyl]carbamate] | < 100 nM | 100 to 500 nM
CNC(=O)c1cn(CCCCc2ccc(NC(=O)Cc3cccc(N4CCCC4)c3)nn2)nn1 [Example 565, N-methyl-1-(4-(6-(2-(3-(pyrrolidin-1-yl)phenyl)acetamido)pyridazin-3-yl)butyl)-1H-1,2,3-triazole-4-carboxamide] | < 100 nM | 100 to 500 nM
O=C(NCc1cc(OC(F)(F)F)ccc1F)c1cn(CC(F)CCc2nnc(NC(=O)c3ccccn3)s2)nn1 (stereo not shown) [Example 595, N-(5-(3-fluoro-4-(4-((2-fluoro-5-(trifluoromethoxy)benzyl)carbamoyl)-1H-1,2,3-triazol-1-yl)butyl)-1,3,4-thiadiazol-2-yl)picolinamide] | < 100 nM | < 100 nM
O=C(NCc1cccc(C(F)(F)F)n1)c1cn(CCC(F)Cn2cc(C(=O)NCc3cc(C(F)(F)F)ccn3)nn2)nn1 (stereo not shown) [Example 474, 1-{2-fluoro-4-[4-({[6-(trifluoromethyl)pyridin-2-yl]methyl}carbamoyl)-1H-1,2,3-triazol-1-yl]butyl}-N-{[4-(trifluoromethyl)pyridin-2-yl]methyl}-1H-1,2,3-triazole-4-carboxamide] | < 100 nM | < 100 nM
O=C(Cc1cccc(OC(F)(F)F)c1)Nc1cn(CCC(F)Cn2cc(C(=O)NCc3cccc(OC(F)(F)F)c3)nn2)nn1 (stereo not shown) [Example 408, 1-[2-fluoro-4-(4-{2-[3-(trifluoromethoxy)phenyl]acetamido}-1H-1,2,3-triazol-1-yl)butyl]-N-{[3-(trifluoromethoxy)phenyl]methyl}-1H-1,2,3-triazole-4-carboxamide] | < 100 nM | < 100 nM
CNC(=O)c1cn(C[C@H](F)CCc2ccc(NC(=O)Cc3ccccc3)nn2)nn1 [Example 273, (R)-1-(2-fluoro-4-(6-(2-phenylacetamido)pyridazin-3-yl)butyl)-N-methyl-1H-1,2,3-triazole-4-carboxamide] | < 100 nM | < 100 nM
